Experimental data: PubChem BioAssay AID1963443 (Molecular Pharmacology Branch, DTP, NCI, 2024)
Where “and” joins values, the source holds several entries; their conditions need not be identical. Equal values may be shown once.

Tested on: MDA-MB-231 complex spheroids, growth inhibition
Experiment: Anticancer human tumor MDA-MB-231 cell line growth inhibition [Asc];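 also: spheroids exposed to compounds for 7 days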
Settings: for viability, T/C: stronger effect = lower value
Outline: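 Stromal components (HUVEC and hMSC) are co-assembled with the cancer cells into multicellular spheroids. Drugs are then added singly or paired, at concentrations falling by half-log increments from a clinically achievable maximum, capped at 10 microM without known Cmax.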

Q: `Cn1ncnc1[C@H]1c2n[nH]c(=O)c3cc(F)cc(c23)N[C@@H]1c1ccc(F)cc1` + Cc1c(S(C)(=O)=O)c(-c2cc(F)cc(N3CCN(c4ccc(NS(=O)(=O)c5ccc(NC(CCN6CCC(C(=O)OCCCP(=O)(O)O)CC6)CSc6ccccc6)c(S(=O)(=O)C(F)(F)F)c5)cc4)CC3)c2)c(-c2ccc(Cl)cc2)n1C(C)C was tested. Which IC50 (curve of first compound, second compound 0.1 µM) did it give?
A: The IC50 was greater than 100 nM.

Q: And the IC50 (curve of first compound, second compound 0.316 µM)?
A: The IC50 was greater than 100 nM.

Q: And the IC50 (curve of first compound, second compound 1 µM)?
A: The IC50 was greater than 100 nM.

Q: What about the IC50 (curve of first compound, second compound 3.16 µM) of the same molecule?
A: Its IC50 is greater than 100 nM.

Q: And the IC50 (curve of first compound, second compound 10 µM)?
A: The IC50 was greater than 100 nM.

Q: And the viability, T/C (second compound 0.1 µM, first compound 0.000316 µM)?
A: The viability, T/C was 104%.

Q: And the viability, T/C (second compound 0.1 µM, first compound 0.001 µM)?
A: Its viability, T/C is 95.4%.

Q: And the viability, T/C (second compound 0.1 µM, first compound 0.00316 µM)?
A: The viability, T/C was 107%.

Q: And the viability, T/C (second compound 0.1 µM, first compound 0.01 µM)?
A: Its viability, T/C is 92.3%.

Q: And the viability, T/C (second compound 0.1 µM, first compound 0.0316 µM)?
A: The viability, T/C was 87.8%.

Q: What about the viability, T/C (second compound 0.1 µM, first compound 0.1 µM) of the same molecule?
A: The viability, T/C was 87.2%.

Q: What about the viability, T/C (second compound 0.316 µM, first compound 0.000316 µM) of the same molecule?
A: The viability, T/C was 103%.

Q: And the viability, T/C (second compound 0.316 µM, first compound 0.001 µM)?
A: The viability, T/C was 105%.

Q: What about the viability, T/C (second compound 0.316 µM, first compound 0.00316 µM) of the same molecule?
A: Its viability, T/C is 95.9%.

Q: What about the viability, T/C (second compound 0.316 µM, first compound 0.01 µM) of the same molecule?
A: The viability, T/C was 90.6%.

Q: What about the viability, T/C (second compound 0.316 µM, first compound 0.0316 µM) of the same molecule?
A: The viability, T/C was 80.7%.

Q: And the viability, T/C (second compound 0.316 µM, first compound 0.1 µM)?
A: Its viability, T/C is 81%.

Q: And the viability, T/C (second compound 1 µM, first compound 0.000316 µM)?
A: The viability, T/C was 101%.

Q: What about the viability, T/C (second compound 1 µM, first compound 0.001 µM) of the same molecule?
A: The viability, T/C was 107%.

Q: What about the viability, T/C (second compound 1 µM, first compound 0.00316 µM) of the same molecule?
A: The viability, T/C was 105%.

Q: What about the viability, T/C (second compound 1 µM, first compound 0.01 µM) of the same molecule?
A: The viability, T/C was 89.5%.

Q: What about the viability, T/C (second compound 1 µM, first compound 0.0316 µM) of the same molecule?
A: Its viability, T/C is 82.3%.

Q: What about the viability, T/C (second compound 1 µM, first compound 0.1 µM) of the same molecule?
A: The viability, T/C was 75.7%.

Q: And the viability, T/C (second compound 3.16 µM, first compound 0.000316 µM)?
A: The viability, T/C was 101%.

Q: And the viability, T/C (second compound 3.16 µM, first compound 0.001 µM)?
A: Its viability, T/C is 95.5%.

Q: What about the viability, T/C (second compound 3.16 µM, first compound 0.00316 µM) of the same molecule?
A: The viability, T/C was 82.2%.

Q: And the viability, T/C (second compound 3.16 µM, first compound 0.01 µM)?
A: The viability, T/C was 83.7%.

Q: What about the viability, T/C (second compound 3.16 µM, first compound 0.0316 µM) of the same molecule?
A: Its viability, T/C is 68.7%.

Q: What about the viability, T/C (second compound 3.16 µM, first compound 0.1 µM) of the same molecule?
A: The viability, T/C was 63.1%.

Q: And the viability, T/C (second compound 10 µM, first compound 0.000316 µM)?
A: The viability, T/C was 115%.

Q: And the viability, T/C (second compound 10 µM, first compound 0.001 µM)?
A: Its viability, T/C is 108%.

Q: And the viability, T/C (second compound 10 µM, first compound 0.00316 µM)?
A: Its viability, T/C is 98.5%.

Q: And the viability, T/C (second compound 10 µM, first compound 0.01 µM)?
A: Its viability, T/C is 91.3%.

Q: And the viability, T/C (second compound 10 µM, first compound 0.0316 µM)?
A: Its viability, T/C is 74.4%.

Q: And the viability, T/C (second compound 10 µM, first compound 0.1 µM)?
A: The viability, T/C was 65%.

Q: Which results are given for `COc1c(OCCCN2CCOCC2)ccc2c3n(c(=NC(=O)c4cnc(N)nc4)nc12)CCN3`?
A: viability, T/C (compound 0.00316 µM): 83.7% and 92% and 96.1%; viability, T/C (compound 0.01 µM): 85.2% and 80.5% and 92.2%; viability, T/C (compound 0.0316 µM): 64.8% and 66.8% and 75.9%; viability, T/C (compound 0.1 µM): 47.6% and 48.4% and 60%; viability, T/C (compound 0.316 µM): 36.6% and 36.7% and 45.5%; viability, T/C (compound 1 µM): 32% and 32.1% and 41.6%; IC50 (curve of compound): 82.5 nM and 91.6 nM and 226 nM
